Where two headings read alike, the source gives them in different places.
Columns and labels:
[1] = ref PharmaPendium, cited from earlier work
[2] = test system: hiPSC-derived neurons co-cultured with human primary astrocytes in 3D; assay: Ca2+ transient oscillation assay (FDSS), 3D spheroids; assay type: cell-based; settings: 60 min
Summary of the method: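 Fura-2 fluorescence was read twice for 20 min each: a baseline 10 min after 0.04% DMSO, and again 60 min after compound addition at nominal final concentration. The 3D co-cultures (1:1 hiPSC neurons from a donor and human astrocytes, 8000 each) matured 5 weeks in BrainPhys medium after a 1-week differentiation.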

[3] = test system: hiPSC-derived neurons co-cultured with human primary astrocytes in 2D; assay: Ca2+ transient oscillation assay (FDSS), 2D co-culture; assay type: cell-based; settings: Homo sapiens, 1 h, 60 min
Summary of the method: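 hiPSC-derived excitatory neurons (CW50065, Quick-Neuron EX-SeV) co-cultured with human primary astrocytes at 4:1 (10,000:2500 cells per well). Cal-520-loaded cells in HBSS with 2 mM CaCl2 and 10 mM HEPES were pretreated with 0.04% DMSO.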

[4] = Table 1, peak plasma concentration in men, free therapeutic Cmax
[5] = Table 2, highest plasma concentration in humans after the therapeutic dose
[6] = read-out: Area under the curve - 2D Mean
[7] = read-out: Peak amplitude - 2D Mean
[8] = read-out: Peak-to-peak interval - 2D Mean

SMILES: NC(=O)N1c2ccccc2C=Cc2ccccc21 [Carbamazepine]
- Free Cmax [1, 4]: 10 µM
- Free Cmax [1, 5]: 10 µM
- Area under the curve - 3D Mean ([2]; 3.7 µM): 122.1 % change from baseline
- Peak Number—3D Mean ([2]; 3.7 µM): 11.4 % change from baseline
- Peak amplitude - 3D Mean ([2]; 3.7 µM): 114.1 % change from baseline
- Peak width - 3D Mean ([2]; 3.7 µM): 2.9 % change from baseline
- Peak-to-peak interval - 3D Mean ([2]; 3.7 µM): −4.9 % change from baseline
- Area under the curve - 3D Mean ([2]; 11.11 µM): 121.7 % change from baseline
- Peak Number—3D Mean ([2]; 11.11 µM): 3.9 % change from baseline
- Peak amplitude - 3D Mean ([2]; 11.11 µM): 114.1 % change from baseline
- Peak width - 3D Mean ([2]; 11.11 µM): 2.8 % change from baseline
- Peak-to-peak interval - 3D Mean ([2]; 11.11 µM): 9.5 % change from baseline
- Area under the curve - 3D Mean ([2]; 33.33 µM): 107.4 % change from baseline
- Peak Number—3D Mean ([2]; 33.33 µM): −19.3 % change from baseline
- Peak amplitude - 3D Mean ([2]; 33.33 µM): 93.5 % change from baseline
- Peak width - 3D Mean ([2]; 33.33 µM): 5.1 % change from baseline
- Peak-to-peak interval - 3D Mean ([2]; 33.33 µM): 33.5 % change from baseline
- Area under the curve - 3D Mean ([2]; 100 µM): 173.0 % change from baseline
- Peak Number—3D Mean ([2]; 100 µM): −21.5 % change from baseline
- Peak amplitude - 3D Mean ([2]; 100 µM): 85.2 % change from baseline
- Peak width - 3D Mean ([2]; 100 µM): 43.8 % change from baseline
- Peak-to-peak interval - 3D Mean ([2]; 100 µM): 25.1 % change from baseline
- activation at 3.7 µM [3, 6]: 31.5%
- activation at 3.7 µM ([3]; read-out: Peak Number—2D Mean): -15.3%
- activation at 3.7 µM [3, 7]: 16.5%
- activation at 3.7 µM ([3]; read-out: Peak width - 2D Mean): 19%
- activation at 3.7 µM [3, 8]: 0.8%
- activation at 11.11 µM [3, 6]: 62%
- activation at 11.11 µM ([3]; read-out: Peak Number—2D Mean): -17%
- activation at 11.11 µM [3, 7]: 8.5%
- activation at 11.11 µM ([3]; read-out: Peak width - 2D Mean): 66.5%
- activation at 11.11 µM [3, 8]: 45.8%
- activation at 33.33 µM [3, 6]: -39.7%
- activation at 33.33 µM ([3]; read-out: Peak Number—2D Mean): -76.8%
- activation at 33.33 µM [3, 7]: -52%
- activation at 33.33 µM ([3]; read-out: Peak width - 2D Mean): -36.7%
- activation at 33.33 µM [3, 8]: 45%
- activation at 100 µM [3, 6]: -100%
- activation at 100 µM ([3]; read-out: Peak Number—2D Mean): -100%
- activation at 100 µM [3, 7]: -100%
- activation at 100 µM ([3]; read-out: Peak width - 2D Mean): -100%
- activation at 100 µM [3, 8]: -100%

SMILES: CN(C)CCCN1c2ccccc2Sc2ccc(Cl)cc21 [Chlorpromazine]
- Free Cmax [1, 4]: 0.05 to 0.15 µM
- Free Cmax [1, 5]: 0.05 to 0.15 µM
- Area under the curve - 3D Mean ([2]; 0.11 µM): 128.5 % change from baseline
- Peak Number—3D Mean ([2]; 0.11 µM): 6.5 % change from baseline
- Peak amplitude - 3D Mean ([2]; 0.11 µM): 96.7 % change from baseline
- Peak width - 3D Mean ([2]; 0.11 µM): 13.3 % change from baseline
- Peak-to-peak interval - 3D Mean ([2]; 0.11 µM): 10.0 % change from baseline
- Area under the curve - 3D Mean ([2]; 0.33 µM): 129.9 % change from baseline
- Peak Number—3D Mean ([2]; 0.33 µM): −2.6 % change from baseline
- Peak amplitude - 3D Mean ([2]; 0.33 µM): 100.7 % change from baseline
- Peak width - 3D Mean ([2]; 0.33 µM): 13.6 % change from baseline
- Peak-to-peak interval - 3D Mean ([2]; 0.33 µM): 12.5 % change from baseline
- Area under the curve - 3D Mean ([2]; 1 µM): 132.1 % change from baseline
- Peak Number—3D Mean ([2]; 1 µM): 11.5 % change from baseline
- Peak amplitude - 3D Mean ([2]; 1 µM): 102.4 % change from baseline
- Peak width - 3D Mean ([2]; 1 µM): 13.0 % change from baseline
- Peak-to-peak interval - 3D Mean ([2]; 1 µM): −9.6 % change from baseline
- Area under the curve - 3D Mean ([2]; 3 µM): 131.9 % change from baseline
- Peak Number—3D Mean ([2]; 3 µM): −4.8 % change from baseline
- Peak amplitude - 3D Mean ([2]; 3 µM): 98.4 % change from baseline
- Peak width - 3D Mean ([2]; 3 µM): 16.6 % change from baseline
- Peak-to-peak interval - 3D Mean ([2]; 3 µM): 6.0 % change from baseline
- activation at 0.11 µM [3, 6]: 26.5%
- activation at 0.11 µM ([3]; read-out: Peak Number—2D Mean): -27%
- activation at 0.11 µM [3, 7]: 8.7%
- activation at 0.11 µM ([3]; read-out: Peak width - 2D Mean): 18%
- activation at 0.11 µM [3, 8]: 47.2%
- activation at 0.33 µM [3, 6]: 36%
- activation at 0.33 µM ([3]; read-out: Peak Number—2D Mean): -29.5%
- activation at 0.33 µM [3, 7]: 4%
- activation at 0.33 µM ([3]; read-out: Peak width - 2D Mean): 38.5%
- activation at 0.33 µM [3, 8]: 48%
- activation at 1 µM [3, 6]: 10.7%
- activation at 1 µM ([3]; read-out: Peak Number—2D Mean): -59.8%
- activation at 1 µM [3, 7]: -4.3%
- activation at 1 µM ([3]; read-out: Peak width - 2D Mean): 13.8%
- activation at 1 µM [3, 8]: 151%
- activation at 3 µM [3, 6]: -100%
- activation at 3 µM ([3]; read-out: Peak Number—2D Mean): -100%
- activation at 3 µM [3, 7]: -100%
- activation at 3 µM ([3]; read-out: Peak width - 2D Mean): -100%
- activation at 3 µM [3, 8]: -100%

— article PMC10046961, “High-Throughput Screening Assay for Detecting Drug-Induced Changes in Synchronized Neuronal Oscillations and Potential Seizure Risk Based on Ca^2+ Fluorescence Measurements in Human Induced Pluripotent Stem Cell (hiPSC)-Derived Neuronal 2D and 3D Cultures” (Cells, 2023)
